From patent publication US20260201008A1, “SECRETIN-DERIVED GLP1R SELECTIVE AGONISTS” (GUBRA A/S, priority 2023, published 2026)
Like-named read-outs stand apart in the source and are kept apart here. Numbered stars: 1 amine (or outer) side, 2 acyl side, 3 side chain; on linkers, the order of the positions; unused ones are H or OH. Square brackets hold non-standard residues; d marks the D form. Side chains are listed from the residue outwards. Peptide text beside a SMILES is read from it. * marks the point of attachment. C20 diacid = O=C(O)CCCCCCCCCCCCCCCCCCC(=O)*; γGlu = O=C(O)[C@H](CCC(=O)[*:2])N[*:1]; AEEA = NCCOCCOCC(=O)O; Aib = CC(C)(N)C(=O)O

How the values were obtained:
[1] = Turbidity of crude library peptides (absorbance at 600 nm); assay type: physicochemical; settings: Physical stability of peptides
Method: (§1) Peptides were dissolved in buffers (50 mM sodium acetate at pH 4.0, or 50 mM sodium phosphate at pH 7.0) to 267 μM and incubated for 1-2 hours at room temperature. The samples were then divided into two replicates of 80 μl in a black 384 well plate (μ-clear, Greiner Bio-One) and mixed with Thioflavin T (ThT) to a final concentration of 4 μM. The plate was centrifuged for 2 min at 2000 rpm to remove air bubbles, sealed, and placed in a plate reader (CLARIOstar, BMG). Firstly, turbidity of the samples was measured as the absorbance at 600 nm. Secondly, the plate reader temperature was set to 40° C. and the fluorescence was measured every 10 min for 72 hours by exciting the ThT at 450 nm and measuring the emission at 480 nm. Samples were stressed by shaking the plate at 700 rpm (linear) for five minutes before every measurement, and fibril formation was determined as the average emission for each sample.

[2] = Fibril formation of crude library peptides (Thioflavin T); assay type: physicochemical; design: key: average ThT fluorescence emission at 480 nm (ex 450 nm), raw units; settings: Physical stability of peptides
Method: as §1

GLP1R = GLP1R (Homo sapiens, UniProt P43220); assay: hGLP1R potency, cAMP accumulation in CHO-K1 cells stably overexpressing hGLP1R; assay type: cell-based; design: host or cells: CHO-K1; settings: for EC50: cAMP accumulation; for SCTR EC50/GLP1R EC50 ratio: cAMP accumulation in CHO-K1 cells
Chain of GLP1R (P43220 24-463): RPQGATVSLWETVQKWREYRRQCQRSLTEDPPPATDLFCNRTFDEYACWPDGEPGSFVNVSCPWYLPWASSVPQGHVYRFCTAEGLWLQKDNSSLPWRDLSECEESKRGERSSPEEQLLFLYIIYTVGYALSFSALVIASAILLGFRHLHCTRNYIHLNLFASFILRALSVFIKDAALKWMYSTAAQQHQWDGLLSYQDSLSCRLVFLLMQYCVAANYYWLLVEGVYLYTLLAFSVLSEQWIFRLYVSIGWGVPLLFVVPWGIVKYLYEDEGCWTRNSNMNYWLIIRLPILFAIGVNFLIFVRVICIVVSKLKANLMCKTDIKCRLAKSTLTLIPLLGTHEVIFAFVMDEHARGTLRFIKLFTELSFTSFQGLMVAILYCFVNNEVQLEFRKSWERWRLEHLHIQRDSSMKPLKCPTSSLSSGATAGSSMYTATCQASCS
Method in brief: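 Potency reflects cAMP accumulation measured by time-resolved fluorescence energy transfer after a 30 min room-temperature stimulation in IBMX-containing (0.5 mM) DPBS with casein. Purified peptides were tested in duplicate over eleven threefold dilutions, and EC50 was obtained from sigmoid concentration-response fitting.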

SCTR = SCTR (Homo sapiens, UniProt P47872); assay: hSCTR potency, cAMP accumulation in CHO-K1 cells stably overexpressing hSCTR; assay type: cell-based; design: alternatively Euroscreen ES-712-AF; FAST-0161L; host or cells: CHO-K1; settings: cAMP accumulation
Chain of SCTR (P47872 23-440): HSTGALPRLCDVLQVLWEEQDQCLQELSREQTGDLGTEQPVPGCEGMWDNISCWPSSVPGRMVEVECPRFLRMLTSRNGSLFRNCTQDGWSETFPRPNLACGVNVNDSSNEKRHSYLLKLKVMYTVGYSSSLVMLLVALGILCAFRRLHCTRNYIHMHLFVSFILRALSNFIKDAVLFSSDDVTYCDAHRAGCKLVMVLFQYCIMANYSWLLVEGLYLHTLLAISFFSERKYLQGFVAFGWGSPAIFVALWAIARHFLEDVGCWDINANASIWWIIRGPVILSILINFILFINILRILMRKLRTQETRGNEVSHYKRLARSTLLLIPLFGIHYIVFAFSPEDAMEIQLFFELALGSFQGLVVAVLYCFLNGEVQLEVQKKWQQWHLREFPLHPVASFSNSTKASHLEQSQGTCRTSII
Method in brief: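 Potency reflects cAMP accumulation after 30 min agonist exposure at room temperature in hSCTR-expressing CHO-K1 cells, with 0.5 mM IBMX present to block phosphodiesterase. EC50 was derived by nonlinear regression.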

[3] = CHO-K1 cells overexpressing hGLP1R, read-out: hGLP1R pEC50 (converted)
[4] = selectivity for hGLP1R over hSCTR
[5] = CHO-K1 cells overexpressing hSCTR, read-out: hSCTR pEC50 (converted)

Row | SMILES | Turbidity (pH 7) [1] | Fibril formation [2] | EC50 (GLP1R; [3]) [nM] | SCTR EC50/GLP1R EC50 ratio (GLP1R; [4]) | EC50 (SCTR; [5]) [nM] | Selectivity (GLP1R; SCTR EC50/GLP1R EC50 ratio) | EC50 (GLP1R; CHO-K1 cells overexpressing hGLP1R, read-out: pEC50 hGLPR1 (converted)) [nM] | EC50 (SCTR; CHO-K1 cells overexpressing hSCTR, read-out: pEC50 hSCTR (converted)) [nM] | EC50 (GLP1R; CHO-K1 cells stably overexpressing hGLP1R, read-out: hGLP1R potency (pEC50) (converted)) [nM] | SCTR EC50/GLP1R EC50 ratio (GLP1R; selectivity ratio, hSCTR vs hGLP1R) | EC50 (SCTR; CHO-K1 cells stably overexpressing hSCTR, read-out: hSCTR potency (pEC50) (converted)) [nM]
1 | CC(C)C[C@H](NC(=O)[C@H](Cc1ccccc1)NC(=O)[C@H](CCCNC(=N)N)NC(=O)[C@H](CCC(N)=O)NC(=O)[C@@H](NC(=O)[C@H](C)NC(=O)[C@H](C)NC(=O)[C@H](CCC(=O)O)NC(=O)[C@H](CCC(=O)O)NC(=O)[C@H](CCCCNC(=O)COCCOCCNC(=O)COCCOCCNC(=O)CC[C@H](NC(=O)CCCCCCCCCCCCCCCCCCC(=O)O)C(=O)O)NC(=O)[C@H](CC(C)C)NC(=O)[C@@H](NC(=O)[C@H](CO)NC(=O)[C@@H](NC(=O)[C@H](CC(=O)O)NC(=O)[C@H](CO)NC(=O)[C@@H](NC(=O)[C@H](Cc1ccccc1)NC(=O)[C@@H](NC(=O)CNC(=O)[C@H](CCC(=O)O)NC(=O)C(C)(C)NC(=O)[C@@H](N)Cc1c[nH]cn1)[C@@H](C)O)[C@@H](C)O)C(C)C)[C@@H](C)O)[C@@H](C)O)C(=O)N[C@@H](CCC(=O)O)C(=O)N[C@@H](Cc1c[nH]cn1)C(=O)N[C@@H](CC(C)C)C(=O)N[C@H](C(N)=O)C(C)C [compound 102] (H-H[Aib]EGTFTSDVSTLK([AEEA-AEEA-γGlu-C20 diacid])EEAATQRFLEHLV-NH2) | 0.08 | 6284 | 0.01 | 8851 | 79.4 | – | – | – | – | – | –
2 | CC(C)C[C@H](NC(=O)[C@H](Cc1ccccc1)NC(=O)[C@H](CCCNC(=N)N)NC(=O)[C@H](CCC(N)=O)NC(=O)[C@H](C)NC(=O)[C@H](C)NC(=O)[C@H](C)NC(=O)[C@H](Cc1ccccc1)NC(=O)[C@H](CCC(=O)O)NC(=O)[C@H](CCCCNC(=O)COCCOCCNC(=O)COCCOCCNC(=O)CC[C@H](NC(=O)CCCCCCCCCCCCCCCCCCC(=O)O)C(=O)O)NC(=O)[C@H](CC(C)C)NC(=O)[C@H](Cc1ccccc1)NC(=O)[C@H](CO)NC(=O)[C@@H](NC(=O)[C@H](CC(=O)O)NC(=O)[C@H](CO)NC(=O)[C@@H](NC(=O)[C@H](Cc1ccccc1)NC(=O)[C@@H](NC(=O)CNC(=O)[C@H](CCC(=O)O)NC(=O)C(C)(C)NC(=O)[C@@H](N)Cc1c[nH]cn1)[C@@H](C)O)[C@@H](C)O)C(C)C)C(=O)N[C@@H](CCC(=O)O)C(=O)N[C@@H](Cc1c[nH]cn1)C(=O)N[C@@H](CC(C)C)C(=O)N[C@H](C(N)=O)C(C)C [compound 84] (H-H[Aib]EGTFTSDVSFLK([AEEA-AEEA-γGlu-C20 diacid])EFAAAQRFLEHLV-NH2) | 0.08 | 47022 | 0.0794 | 51215 | 3980 | – | – | – | – | – | –
3 | CC(C)C[C@H](NC(=O)[C@H](Cc1ccccc1)NC(=O)[C@H](CCCNC(=N)N)NC(=O)[C@H](CCC(N)=O)NC(=O)[C@H](CC(C)C)NC(=O)C(C)(C)NC(=O)[C@H](C)NC(=O)[C@H](CCC(=O)O)NC(=O)[C@H](CCC(=O)O)NC(=O)[C@H](CCCCNC(=O)COCCOCCNC(=O)COCCOCCNC(=O)CC[C@H](NC(=O)CCCCCCCCCCCCCCCCCCC(=O)O)C(=O)O)NC(=O)[C@H](CC(C)C)NC(=O)[C@H](CC(N)=O)NC(=O)[C@H](CO)NC(=O)[C@@H](NC(=O)[C@H](CC(=O)O)NC(=O)[C@H](CO)NC(=O)[C@@H](NC(=O)[C@H](Cc1ccccc1)NC(=O)[C@@H](NC(=O)CNC(=O)[C@H](CCC(=O)O)NC(=O)C(C)(C)NC(=O)[C@@H](N)Cc1c[nH]cn1)[C@@H](C)O)[C@@H](C)O)C(C)C)C(=O)N[C@@H](CCC(=O)O)C(=O)N[C@@H](Cc1c[nH]cn1)C(=O)N[C@@H](CC(C)C)C(=O)N[C@H](C(N)=O)C(C)C [compound 136] (H-H[Aib]EGTFTSDVSNLK([AEEA-AEEA-γGlu-C20 diacid])EEA[Aib]LQRFLEHLV-NH2) | 0.08 | 3353 | 0.0126 | 857 | 12.6 | – | – | – | – | – | –
4 | CC(C)C[C@H](NC(=O)[C@H](Cc1ccccc1)NC(=O)[C@H](CCCNC(=N)N)NC(=O)[C@H](CCC(N)=O)NC(=O)[C@H](CO)NC(=O)[C@H](C)NC(=O)[C@H](C)NC(=O)[C@H](CCC(=O)O)NC(=O)[C@H](CCC(=O)O)NC(=O)[C@H](CCCCNC(=O)COCCOCCNC(=O)COCCOCCNC(=O)CC[C@H](NC(=O)CCCCCCCCCCCCCCCCCCC(=O)O)C(=O)O)NC(=O)[C@H](CC(C)C)NC(=O)[C@H](Cc1ccc(O)cc1)NC(=O)[C@H](CO)NC(=O)[C@@H](NC(=O)[C@H](CC(=O)O)NC(=O)[C@H](CO)NC(=O)[C@@H](NC(=O)[C@H](Cc1ccccc1)NC(=O)[C@@H](NC(=O)CNC(=O)[C@H](CCC(=O)O)NC(=O)C(C)(C)NC(=O)[C@@H](N)Cc1c[nH]cn1)[C@@H](C)O)[C@@H](C)O)C(C)C)C(=O)N[C@@H](CCC(=O)O)C(=O)N[C@@H](Cc1c[nH]cn1)C(=O)N[C@@H](CC(C)C)C(=O)N[C@H](C(N)=O)C(C)C [compound 75] (H-H[Aib]EGTFTSDVSYLK([AEEA-AEEA-γGlu-C20 diacid])EEAASQRFLEHLV-NH2) | 0.08 | 9457 | – | – | – | 133506 | 0.0251 | 3160 | – | – | –

Second part, the molecule after the results:

Row | Turbidity (pH 7) [1] | Fibril formation [2] | EC50 (GLP1R; [3]) [nM] | SCTR EC50/GLP1R EC50 ratio (GLP1R; [4]) | EC50 (SCTR; [5]) [nM] | Selectivity (GLP1R; SCTR EC50/GLP1R EC50 ratio) | EC50 (GLP1R; CHO-K1 cells overexpressing hGLP1R, read-out: pEC50 hGLPR1 (converted)) [nM] | EC50 (SCTR; CHO-K1 cells overexpressing hSCTR, read-out: pEC50 hSCTR (converted)) [nM] | EC50 (GLP1R; CHO-K1 cells stably overexpressing hGLP1R, read-out: hGLP1R potency (pEC50) (converted)) [nM] | SCTR EC50/GLP1R EC50 ratio (GLP1R; selectivity ratio, hSCTR vs hGLP1R) | EC50 (SCTR; CHO-K1 cells stably overexpressing hSCTR, read-out: hSCTR potency (pEC50) (converted)) [nM] | SMILES
5 | 0.08 | 3552 | 0.0398 | 14974 | 501 | – | – | – | – | – | – | CC(C)C[C@H](NC(=O)[C@H](Cc1ccccc1)NC(=O)[C@H](CCCNC(=N)N)NC(=O)[C@H](CCC(N)=O)NC(=O)[C@H](CC(C)C)NC(=O)C(C)(C)NC(=O)[C@H](C)NC(=O)[C@H](CCC(=O)O)NC(=O)[C@H](CCC(=O)O)NC(=O)[C@H](CCCCNC(=O)COCCOCCNC(=O)COCCOCCNC(=O)CC[C@H](NC(=O)CCCCCCCCCCCCCCCCCCC(=O)O)C(=O)O)NC(=O)[C@H](CC(C)C)NC(=O)[C@H](Cc1ccc(O)cc1)NC(=O)[C@H](CO)NC(=O)[C@@H](NC(=O)[C@H](CC(=O)O)NC(=O)[C@H](CO)NC(=O)[C@@H](NC(=O)[C@H](Cc1ccccc1)NC(=O)[C@@H](NC(=O)CNC(=O)[C@H](CCC(=O)O)NC(=O)C(C)(C)NC(=O)[C@@H](N)Cc1c[nH]cn1)[C@@H](C)O)[C@@H](C)O)C(C)C)C(=O)N[C@@H](CCC(=O)O)C(=O)N[C@@H](Cc1c[nH]c2ccccc12)C(=O)N[C@@H](CC(C)C)C(=O)N[C@H](C(N)=O)C(C)C [compound 169] (H-H[Aib]EGTFTSDVSYLK([AEEA-AEEA-γGlu-C20 diacid])EEA[Aib]LQRFLEWLV-NH2)
6 | 0.08 | 5187 | – | – | – | – | – | – | 0.0126 | 1743 | 20 | CC(C)C[C@H](NC(=O)[C@H](Cc1ccc(O)cc1)NC(=O)[C@H](CO)NC(=O)[C@H](Cc1ccc(O)cc1)NC(=O)[C@H](CC(=O)O)NC(=O)[C@H](CO)NC(=O)[C@@H](NC(=O)[C@H](Cc1ccccc1)NC(=O)[C@@H](NC(=O)CNC(=O)[C@H](CCC(=O)O)NC(=O)C(C)(C)NC(=O)[C@@H](N)Cc1c[nH]cn1)[C@@H](C)O)[C@@H](C)O)C(=O)N[C@@H](CCCCNC(=O)COCCOCCNC(=O)COCCOCCNC(=O)CC[C@H](NC(=O)CCCCCCCCCCCCCCCCCCC(=O)O)C(=O)O)C(=O)N[C@@H](CCC(=O)O)C(=O)N[C@@H](CCC(=O)O)C(=O)N[C@@H](C)C(=O)NC(C)(C)C(=O)N[C@@H](CC(C)C)C(=O)N[C@@H](CCC(N)=O)C(=O)N[C@@H](CCCNC(=N)N)C(=O)N[C@@H](Cc1ccccc1)C(=O)N[C@@H](CC(C)C)C(=O)N[C@@H](CCC(=O)O)C(=O)N[C@@H](Cc1c[nH]cn1)C(=O)N[C@@H](CC(C)C)C(=O)N[C@H](C(N)=O)C(C)C [compound 196] (H-H[Aib]EGTFTSDYSYLK([AEEA-AEEA-γGlu-C20 diacid])EEA[Aib]LQRFLEHLV-NH2)
